This note sets out measurements from patent US20230390275A1, “APPLICATION OF ESTER GROUP-[…] PR[…] AND METABOLITE THEREOF IN PREPARATION OF DRUG FOR TREATING HEART FAILURE” (CHANGCHUN GENESCIENCE PHARMACEUTICAL CO., LTD., priority 2020, published 2023).

What all share (format): in vivo, Sprague Dawley rats
The test system of assay [1] is heart failure rats. Briefly: Body weight and organ weight index (heart weight index, brain/heart weight ratio) in myocardial infarction heart failure rats. Also on record: Brain weight/heart weight: unit not given here. The conditions noted are these: 3 mpk p.o. qd for 4 weeks; endpoint; Mean ± SEM, N = 7. As for the experimental part: • 1. Vehicle (0.5% CMC Na): formulation: 5 g of CMC Na was weighed out, and the volume was made up to 1000 mL with ddwater; the vehicle was obtained by stirring with a stirrer until the CMC Na was dissolved. • 2. EG017: formulation: a proper amount of the sample was weighed out, and a formula amount of the 0.5% CMC Na was added to prepare 1 mg/kg, 3 mg/kg and 10 mg/kg compound; the formulations were obtained by stirring with a stirrer until the sample was dissolved. Administration regimen: one week after animal modeling, sham/myocardial infarction rats were grouped and administered orally once daily for 28 consecutive days in a volume of 10 mL/kg. […]
One week after the modeling of animals, the isoflurane was used for anesthetizing the rats, the Vevo small animal ultrasonic imaging system was used for checking the function of the left ventricle of the model rats, and successful modeling was determined if the LVFE % was reduced by 30%. […]

Assay [2] deals with heart failure rats. Briefly: Hemodynamics (heart rate, arterial blood pressure, left ventricular pressure) in myocardial infarction heart failure rats. The conditions noted are these: 3 mpk p.o. qd for 4 weeks; one day after last dose; Mean ± SEM, N = 7. Also on record: Dp/dt max / Dp/dt min: unit not given here. As for the experimental part:
(§1) • 1. Vehicle (0.5% CMC Na): formulation: 5 g of CMC Na was weighed out, and the volume was made up to 1000 mL with ddwater; the vehicle was obtained by stirring with a stirrer until the CMC Na was dissolved. • 2. EG017: formulation: a proper amount of the sample was weighed out, and a formula amount of the 0.5% CMC Na was added to prepare 1 mg/kg, 3 mg/kg and 10 mg/kg compound; the formulations were obtained by stirring with a stirrer until the sample was dissolved. Administration regimen: one week after animal modeling, sham/myocardial infarction rats were grouped and administered orally once daily for 28 consecutive days in a volume of 10 mL/kg.
(§2) After adaptive feeding, on the day of the experiment, the animals were anesthetized by intraperitoneal injection of pentobarbital sodium injection (60 mpk), atropine (0.5 mpk) was injected intraperitoneally to eliminate phlegm, and then the trachea was connected with a breathing machine to assist breathing; the chest was cut open from the place between the third rib and the fourth rib and then expanded with a chest expander; the pericardium was torn open, the left anterior descending coronary artery was ligated with 5-0 silk thread, the ribs and skin were sutured, and then the animals were placed on a heat preservation blanket for recovery after operation. The animals in the Sham group were also subjected to the same operation, except that the ligation with silk thread was not performed. After the operation was finished, all the animals are subjected to intramuscular injection of meloxicam (1 mpk) and gentamicin hydrochloride injection (8 mpk) for analgesia and anti-infection. One day before administration, the rats were subjected to cardiac ultrasonography after anesthesia by isoflurane inhalation (1.5%-5% v/v in oxygen), and the ligation was successful if there was no significant contraction of the anterior wall of the left ventricle, the left ventricular cavity was enlarged, and there was a 30% decrease in left ventricular ejection fraction compared to the normal control group. Successfully modeled rats were selected for subsequent experiments (note: ensure that there were 7 animals in each group after modeling, and 7 animals in the sham group). The rats in each group were subjected to intragastric administration of therapeutic agent once daily for four consecutive weeks. During the experiment, the living state of the animals was observed, and the abnormal conditions were recorded; endpoint index detection and sample collection were performed one day after the last dose.
(§3) One week after the modeling of animals, the isoflurane was used for anesthetizing the rats, the Vevo small animal ultrasonic imaging system was used for checking the function of the left ventricle of the model rats, and successful modeling was determined if the LVFE % was reduced by 30%.
(§4) Except for the Sham group, the animals were divided into 9 groups according to LVEF % and body weight, 7 rats in each group. […]

For assay [3], the system named is heart failure rats. Briefly: Echocardiography of left ventricular function in myocardial infarction heart failure rats. Conditions: 3 mpk p.o. qd for 4 weeks; one day after last dose; Mean ± SEM, N = 7. The method, then:
as §1, §2, §3, §4

`C[C@@](COc1ccc(C#N)cc1)(OC(=O)c1cccnc1)C(=O)Nc1ccc(C#N)c(C(F)(F)F)c1` [EG017, (S)-1-((4-cyano-3-(trifluoromethyl)phenyl)amino)-3-(4-cyanophenoxy)-2-methyl-1-oxopropan-2-yl nicotinate]: in the assay on heart failure rats [1], the Brain weight/heart weight came to 78.3 ± 4.31 and the Heart weight index stood at 0.376 ± 0.025 g/100 g body weight. In the assay with heart failure rats [2], this compound displayed a DBP of 76.1 ± 3.02 mmHg, a Dp/dt max of 6630 ± 432, a Dp/dt min of −6603 ± 707 and an HR of 352 ± 23.3 BPM. Moreover, in the assay with heart failure rats [2], the LVSP was 98.5 ± 3.89& mmHg, the MBP is 88.3 ± 3.39 mmHg and the SBP came out at 98.7 ± 3.62 mmHg. Moreover, in the assay on heart failure rats [3], the CO worked out at 85.6 ± 9.55 mL/min, the EDV was 477 ± 48.2 µL, the ESV is 238 ± 52.0 µL and the FS is on record as 29.0 ± 3.51 %. Moreover, in the assay on heart failure rats [3], the LV mass is 1497 ± 145^ mg, the LVEF is given as 52.7 ± 5.61 %, the LVPWTd amounted to 2.17 ± 0.17 mm and the LVPWTs is 2.66 ± 0.22 mm. In the assay with heart failure rats [3], this compound displayed an SV of 238 ± 21.1 µL.
